Assay results taken from ChEMBL document CHEMBL4406848, “Novel water soluble BODIPY compounds: Synthesis, photochemical, DNA interaction, topoisomerases inhibition and photodynamic activity properties” (Eur J Med Chem, 2019).

Assays:
[1] = system: HCT-116; assay: Induction of apoptosis in human HCT116 cells assessed as late apoptotic cells at 5 uM incubated for 24 hrs in presence of irradiation by annexin V FITC and propidium iodide based flow cytometry (reference value: 1.6 %); assay type: functional
[2] = biological target: T1, DNA topoisomerase 1 (Homo sapiens) (UniProt P11387); assay: Inhibition of recombinant human topoisomerase 1 assessed as supercoiled pBR322 DNA at 25 uM incubated for 1 hr by ethidium bromide staining based agarose gel electrophoresis method relative to control; parameters: scale not given: the % may be the effect or the level left
T1 sequence (whole entry): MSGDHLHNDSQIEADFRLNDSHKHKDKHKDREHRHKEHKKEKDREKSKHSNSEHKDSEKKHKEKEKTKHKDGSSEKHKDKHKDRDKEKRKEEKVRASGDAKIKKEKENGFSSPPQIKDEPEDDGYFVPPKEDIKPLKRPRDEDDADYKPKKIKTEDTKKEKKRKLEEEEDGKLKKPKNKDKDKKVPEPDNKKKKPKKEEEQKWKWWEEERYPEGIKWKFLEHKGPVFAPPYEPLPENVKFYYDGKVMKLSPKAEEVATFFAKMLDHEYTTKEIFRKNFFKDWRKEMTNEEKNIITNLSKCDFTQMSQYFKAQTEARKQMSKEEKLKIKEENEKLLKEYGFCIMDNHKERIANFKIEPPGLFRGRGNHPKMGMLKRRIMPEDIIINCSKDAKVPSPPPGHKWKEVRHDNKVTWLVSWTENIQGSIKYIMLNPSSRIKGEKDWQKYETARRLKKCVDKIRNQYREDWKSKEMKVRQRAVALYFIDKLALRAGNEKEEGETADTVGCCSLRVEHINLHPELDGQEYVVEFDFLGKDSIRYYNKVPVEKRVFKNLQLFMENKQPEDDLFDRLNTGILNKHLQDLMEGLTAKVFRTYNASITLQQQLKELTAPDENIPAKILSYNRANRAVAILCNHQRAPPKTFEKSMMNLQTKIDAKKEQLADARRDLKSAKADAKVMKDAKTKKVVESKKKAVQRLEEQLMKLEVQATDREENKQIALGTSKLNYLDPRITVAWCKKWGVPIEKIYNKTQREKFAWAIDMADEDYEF

| Activity [2] [%] | Compound | Activity [1] [%] |
| --- | --- | --- |
| – | CC1=CC(/C=C/c2ccc(OCCCc3ccc[n+](C)c3)cc2)=[N+]2C1=C(c1ccc(OCCCc3ccc[n+](C)c3)cc1)c1c(C)cc(/C=C/c3ccc(OCCCc4ccc[n+](C)c4)cc3)n1[B-]2(F)F.[I-].[I-].[I-] | 30.5 |
| 66 | CC1=CC(/C=C/c2ccc(OCCCc3ccc[n+](C)c3)c(OCCCc3ccc[n+](C)c3)c2)=[N+]2C1=C(c1ccc(OCCCc3ccc[n+](C)c3)c(OCCCc3ccc[n+](C)c3)c1)c1c(C)cc(/C=C/c3ccc(OCCCc4ccc[n+](C)c4)c(OCCCc4ccc[n+](C)c4)c3)n1[B-]2(F)F.[I-].[I-].[I-].[I-].[I-].[I-] | – |
